The results in this text go back to PMC9050848, “Carbamoyl-N-aryl-imine-urea: a new framework to obtain a putative leishmanicidal drug-candidate” (RSC Advances, 2020).

The test system of series [1] is J774.A1 cell lines (macrophages). The experiment in a line: Cytotoxicity against J774.A1 macrophages, MTT assay. In kind it is cell-based, murine (BALB/c). The conditions noted are these: Mus musculus, read-out: IC50 (concentration required to give 50% death of cells). Here is the method: Initially the cytotoxic profile of compounds 9a–e and 10a–e against J774.A1 cell lines (i.e., BALB/c macrophage cell lines) was investigated. Therefore, these cells were exposed to different concentrations (0.1–100 μM) of compounds 9a–e and 10a–e and the cytotoxic effect was measured after 48 h of drug incubation, by using MTT-based assay. The cytotoxicity was expressed as IC50 values (that means the concentration of a drug that kills half of the tested cells in culture). As depicted in Table 1, most compounds have shown low cytotoxic activity with IC50 > 100 μM.
These adherent-phenotype macrophage lines were cultured in Dulbecco's Modified Eagle's medium (DMEM, Sigma) supplemented with 10% FBS at 37 °C with 95% humidity and 5% CO2.
To evaluate the cytotoxic activity against the J774.A1 cell line, the host cells were plated in 96-well cell culture plate (flat bottom, clear, Corning) at 2 × 10^5 cells per well in complete culture medium 10% FBS at 37 °C. After 1 h wells were washed with warm Hank's Balanced Salt solution (HBSS) to remove non-adherent cells, leaving approximately 10^5 adherent macrophages. All cultures were done in DMEM complete supplemented with 10% FBS. The compounds and pentamidine were added at serial concentrations (0.1–100 μM). The cells were also cultured with medium free from compounds or vehicle (basal growth control) or in media with DMSO 0.1% (vehicle control). Positive control (dead cells) was obtained by cellular lysis with 1% of Triton 100× in DMEM complete (because it is a detergent in this concentration, Triton 100× destabilizes the cell membrane of macrophages, causing cell death). The cytotoxicity was evaluated by the MTT assay.[31] This assay consists of indirectly measuring cell viability through the mitochondrial enzymatic activity of macrophages. Viable cells are capable of reducing MTT to formazan. For this, after the incubation of plate for 48 h, 100 μL of MTT solution (0.5 mg mL^−1, in DMEM medium) was added per well, and the plate was incubated for 1 h. Then, the supernatant of each well was retired and was added 150 μL of DMSO. The absorbance was determined at 570 nm in a microplate reader. The cell viability of the cultures treated with the compounds was compared to the death pattern obtained in the control cultures. In the positive control, the cell death was confirmed when the optical density was equal to zero, confirming that the cells were not viable. Data obtained from experiments were expressed as the mean ± standard error of the mean (mean ± S.E.M.) and statistical differences between the treated and the vehicle groups of experiments were evaluated by ANOVA and Dunnett hoc tests.

For series [2], the system named is L. amazonensis intracellular amastigotes. The experiment in a line: Leishmanicidal activity against intracellular amastigote forms of L. amazonensis in J774.A1 macrophages. In kind it is cell-based. The following applies: for Effect on the number of intracellular amastigotes: L. amazonensis, screening concentration 30 μM; for IC50 / Emax: Leishmania amazonensis; for IC50: read-out: IC50 (concentration required to give 50% death of parasites); for Emax: maximum toxicity vs 0.1% DMSO group, read-out: Maximum effect (% ± S.E.M.). Here is the method: Considering that L. amazonensis is one of the causative species of cutaneous leishmaniasis in Brazil,[20] we have investigated the leishmanicidal effect of compounds 9a–e and 10a–e against L. amazonensis amastigotes forms. Initially, all compounds were evaluated at 30 μM. […] Then, they were selected to determine their IC50 value for intracellular amastigote forms of L. amazonensis.
(§1) Promastigotes of L. amazonensis (MHOM/BR/77/LTB0016) were obtained from Dr Eduardo Caio Torres dos Santos at Oswaldo Cruz Institute – Fiocruz. Promastigotes of L. braziliensis (MHOM/BR/01/BA788) were obtained from Dr Valéria de Matos Borges at Gonçalo Moniz Research Center – Fiocruz. The parasites were maintained in vitro in Schneider's medium, supplemented with 10% FBS and 2% human urine at 27 °C in BOD incubator.
(§2) Initially, compounds 9a–e and 10a–e were evaluated at screening concentration of 30 μM against L. amazonensis, using DMSO 0.03% as vehicle control, since this was the DMSO concentration (vehicle) remaining in each well with the tested compounds. […] Vehicle control used was DMSO 0.1%, since this was the concentration of DMSO (vehicle) existing in each well with the tested substances in the highest concentration used.
(§3) To assess the activity of the test derivatives against the amastigote stage of L. amazonensis and L. braziliensis the model of infection in coverglass was realized.[31] The murine macrophages (J774.A1 cell line) were prepared in 24-well cell culture plate (flat bottom, clear, Corning) at 2 × 10^5 adherent cells per well, infected with 2 × 10^6 promastigotes in glass coverslips placed inside 1 mL medium culture. The cultures were cultured or not with the test derivatives or reference drugs, and kept for 24 h at 37 °C, 5% CO2. After 24 h of incubation, the coverslips were washed, stained with Giemsa–May–Grünwald, and intracellular amastigotes were counted in 100 macrophages, using an optical microscope, on the objective of 100×. Thus, during the counting of 100 macrophages, the amount of amastigotes present within these defence cells was also determined. Data obtained from in vitro experiments were expressed as the mean ± S.E.M. of duplicate cultures of representative assays. Statistical differences between the treated and the control groups were evaluated by ANOVA and Dunnett hoc tests. Differences with a p value < 0.05 or lower were considered significant.

Series [3] deals with L. braziliensis intracellular amastigotes. Put plainly: Leishmanicidal activity against intracellular amastigote forms of L. braziliensis in J774.A1 macrophages. In kind it is cell-based. The conditions noted are these: Leishmania braziliensis; for IC50: read-out: IC50 (concentration required to give 50% death of parasites); for Emax: maximum toxicity vs 0.1% DMSO group, read-out: Maximum effect (% ± S.E.M.).
Description: Further, the leishmanicidal activity against intracellular amastigotes forms of L. braziliensis were also investigated (Table 2).
as §1, §2, §3

For a further series, the system named is L. amazonensis. Put plainly: Murine model of cutaneous leishmaniasis induced by L. amazonensis (efficacy). In kind it is in vivo, BALB/c mice. The conditions noted are these: 30 μmol per kg per day × 28 days. Here is the method:
So, BALB/c mice infected with L. amazonensis were treated during 28 days with compound 10e (30 μmol per kg per day, i.p.) or with the standards miltefosine (30 μmol per kg per day, p.o.) and meglumine antimoniate (30 μmol per kg per day, i.p.).
(§4) This study (protocol number 2013.02) was approved by the Ethics Committee for Animal Experimentation of the Federal University of Alagoas (Brazil). All animals received humane care in compliance with the ‘Principles of laboratory animal care’ formulated by the National Society for Medical Research and the ‘Guide for the care and use of laboratory animals’ prepared by the National Academy of Sciences (Washington, DC). Then, 1 × 10^5 stationary promastigotes (5 days of culture in Schneider's medium) of L. amazonensis were inoculated subcutaneously into the right ear dermis of 6 week-old female BALB/c mice weighing ca. 20 g. and later treated with 10e (i.p.), miltefosine (p.o.) or meglumine antimoniate (i.p.) at 30 μmol kg^−1 × 28 days. The vehicle to solubilize 10e (LASSBio-1736) and standard drugs was Tween 20 (50 μL) and sterile water for injection, which was also administrated by i.p. route in two controls groups (non-infected control and infected control). The lesion size was measured using a paquimeter.[32] The parasite loads of infected ears and draining lymph nodes were determined using a quantitative limiting-dilution assay.[33] Toxicity was also evaluated due to alterations on spleen weight and by biochemistry dosages in plasma, performed according to the manufacturer's instructions (Doles, BRA). Data obtained from experiments were expressed as the mean ± S.E.M. and statistical differences between the treated and the vehicle groups of experiments were evaluated by ANOVA and Dunnett hoc tests.

The nature of series [4]: Toxicity in treated infected mice (survival, spleen weight, serum biochemistry). In kind it is in vivo. The conditions noted are these: infected BALB/c mice, 30 μmol kg−1 daily for 28 days, n = 5. The procedure:
The survival of BALB/c mice infected with L. amazonensis untreated and treated during 28 days with the daily dose of 30 μmol kg^−1 with meglumine antimoniate, miltefosine and 10e (LASSBio-1736) was analyzed. Animal mortality was not observed for the groups treated with 10e and miltefosine, while 20% of death was identified from the 25th day of treatment with meglumine antimoniate (Fig. 11). After the end of treatment, the animal's toxicity was investigated looking for any alterations on spleen weight and on alanine aminotransferase (ALT), aspartate aminotransferase (AST), creatinine (CREA) and urea serum levels.
as §4

The mark [5] stands for this setting: J774.A1 macrophages, 48 h incubation, MTT, 0.1–100 μM.
[6] abbreviates: L. amazonensis amastigotes, ratio of IC50 values.
Where [7] appears, read: J774.A1, L. amazonensis intracellular amastigotes, 24 h.
[8] abbreviates: J774.A1, L. amazonensis intracellular amastigotes.
Setting [9] is: J774.A1, L. braziliensis intracellular amastigotes, 24 h.
[10] abbreviates: J774.A1, L. braziliensis intracellular amastigotes.

Where two headings read alike, the source gives them in different places.

For the compound `O=C(N/N=C/c1ccc([N+](=O)[O-])o1)NNC(=O)c1ccc(Cl)cc1` [LASSBio-1491 (9a), 4-chloro-phenylcarbamoyl-N-5-nitrofuranimine-urea], in series [1] (setting [5]), the IC50 was over 100 µM.
On the same count and under the same terms, as for `O=C(N/N=C/c1ccc([N+](=O)[O-])o1)NNC(=O)c1ccc(Cl)cc1Cl` [LASSBio-1703 (10a), 2,4-dichloro-phenylcarbamoyl-N-5-nitrofuranimine-urea], the figure is over 100 µM.
`O=C(N/N=C/c1ccccc1O)NNC(=O)c1ccc(Cl)cc1` [LASSBio-1704 (9b), 4-chloro-phenylcarbamoyl-N-2-hydroxyphenylimine-urea]: the IC50 in series [1] (setting [5]) is over 100 µM; in series [2] (setting [7]), 85.3 ± 5 µM; in series [3] (setting [9]), over 100 µM. For the same compound, in series [2] (setting [6]), the “Times less potent than miltefosine” value is about 4.0 times. The “Times less potent than pentamidine” value in series [2] (setting [6]) is given as “about 2.5 times”. Moreover, the “Effect on the number of intracellular amastigotes” value (“Effect on the number” below) in series [2] is reported as “decreased the number of intracellular amastigotes”. Besides, the figures for the Emax in series [2] (setting [8]) and in series [3] (setting [10]) were 55.6 ± 1.4% and 48.1 ± 4.5%, respectively.
In the case of `O=C(N/N=C/c1ccccc1O)NNC(=O)c1ccc(Cl)cc1Cl` [LASSBio-1705 (10b), 2,4-dichloro-phenylcarbamoyl-N-2-hydroxyphenylimine-urea], in series [1] (setting [5]), the IC50 came to 78.1 ± 4.5 µM.
As to `O=C(N/N=C/c1ccc(O)cc1)NNC(=O)c1ccc(Cl)cc1` [LASSBio-1706 (9d), 4-chloro-phenylcarbamoyl-N-4-hydroxyphenylimine-urea], the IC50 in series [1] (setting [5]) was 86.2 ± 8.7 µM; in series [2] (setting [7]) it was over 100 µM; in series [3] (setting [9]), 3.6 ± 0.6 µM. The “Effect on the number” value in series [2] is listed as “decreased the number of intracellular amastigotes”. Moreover, in series [3] (setting [10]), the Emax is 70.4 ± 1.9%.
As to `O=C(N/N=C/c1ccc(O)cc1)NNC(=O)c1ccc(Cl)cc1Cl` [LASSBio-1707 (10d), 2,4-dichloro-phenylcarbamoyl-N-4-hydroxyphenylimine-urea], the IC50 in series [1] (setting [5]), in series [2] (setting [7]) and in series [3] (setting [9]) was over 100 µM each time. For the same compound, the “Effect on the number” value in series [2] is on record as “decreased the number of intracellular amastigotes”. The Emax in series [2] (setting [8]) was found to be 44.4 ± 0.2%.
Consider `O=C(N/N=C/c1cccc(O)c1)NNC(=O)c1ccc(Cl)cc1Cl` [LASSBio-1708 (10c), 2,4-dichloro-phenylcarbamoyl-N-3-hydroxyphenylimine-urea], for which the IC50 in series [1] (setting [5]), in series [2] (setting [7]) and in series [3] (setting [9]) was over 100 µM each time. In series [2], the “Effect on the number” value was “decreased the number of intracellular amastigotes”. Further, the Emax in series [2] (setting [8]) is 31 ± 1.7%.
On to `O=C(N/N=C/c1cccc(O)c1)NNC(=O)c1ccc(Cl)cc1` [LASSBio-1709 (9c), 4-chloro-phenylcarbamoyl-N-3-hydroxyphenylimine-urea], for which the IC50 in series [1] (setting [5]) was found to be 85.2 ± 2.3 µM.
The same measure, in the same setting: in the case of `O=C(N/N=C/c1ccc(C(F)(F)F)cc1)NNC(=O)c1ccc(Cl)cc1` [LASSBio-1737 (9e)] it was over 100 µM.
Regarding `CCCCCCCCCCCCCCCCOP(=O)([O-])OCC[N+](C)(C)C` [Miltefosine, reference compound], the IC50 is over 100 µM in series [1] (J774.A1, 48 h); 22 ± 1.8 µM in series [2] (J774.A1, 24 h); 32.1 ± 1.1 µM in series [3] (J774.A1, 24 h). Besides, the Emax came out at 58.1 ± 4.9% in series [2] (setting [8]) and 84 ± 1.5% in series [3] (setting [10]). In the series with L. amazonensis, the “Appearance of lesions on the first day after end of treatment (photographs)” value is “complete healing of the nodules and ulcers”. Besides, in the series with L. amazonensis (10e and meglumine antimoniate i.p., miltefosine p.o.), the “Lesion sizes of infected ear” value is reported as “reduced the lesion sizes of infected ear”. Besides, the “Parasite load in infected ear” value with L. amazonensis (limiting-dilution assay) is listed as “decreased parasite load in infected ear”. Besides, the Animal mortality result in series [4] is on record as “not observed”.
Take `N=C(N)c1ccc(OCCCCCOc2ccc(C(=N)N)cc2)cc1` [Pentamidine, reference compound]: the IC50 in series [1] (setting [5]) was 35.5 ± 3.4 µM; in series [2] (setting [7]) it was 32.8 ± 4.6 µM; in series [3] (setting [9]) it was 78.4 ± 4.7 µM. The Emax in series [2] (setting [8]) worked out at 59.1 ± 5.6%; in series [3] (setting [10]), 61.7 ± 2.2%.
On to “meglumine antimoniate [reference compound]”, for which the “Appearance of lesions on the first day after end of treatment (photographs)” value in the series on L. amazonensis was “the lesions showed an intense swelling and ulcerated”. This compound also displayed an Animal mortality in series [4] of 20%.
